Source: patent publication US8178548B2, “Anti-infective agents and uses thereof” (priority 2007, dated 2012)
Read-outs that look alike come from different tables or passages of the source.

Columns and labels:
[1] = molecular target: T1, HCV polymerase 1A (Δ21 NS5B, H77) (Hepatitis C virus genotype 1a, UniProt P27958); test: biochemical
T1 construct: 20 to 50 nM Δ21 NS5B
Experimental: (§1) Either two-fold serial dilutions (fractional inhibition assay) or a narrower range of dilutions spanning the IC50 of the inhibitor (tight binding assay) of the inhibitors were incubated with 20 mM Tris-Cl pH 7.4, 2 mM MnCl2, 1 mM dithiothreitol, 1 mM ethylene diamine tetraacetic acid (EDTA), 60 to 125 μM GTP and 20 to 50 nM Δ21 NS5B (HCV Strain 1B (BK, Genbank accession number M58335, or H77, Genbank accession number AF011751)) for 15 min at room temperature. The reaction was initiated by the addition of 20 μM CTP, 20 μM ATP, 1 μM ^3H-UTP (10 mCi/umol), 5 nM template RNA and 0.1 U/μl RNase inhibitor (RNasin, Promega), and allowed to proceed for 2 to 4 h at room temperature. Reaction volume was 50 μl. The reaction was terminated by the addition of 1 volume of 4 mM spermine in 10 mM Tris-Cl pH 8.0, 1 mM EDTA. After incubation for at least 15 min at room temperature, the precipitated RNA was captured by filtering through a GF/B filter (Millipore) in a 96 well format. The filter plate was washed three times with 200 μl each of 2 mM spermine, 10 mM Tris-Cl pH 8.0, 1 mM EDTA, and 2 times with ethanol. After air-drying, 30 μl of Microscint 20 scintillation cocktail (Packard) was added to each well, and the retained cpm were determined by scintillation counting. […] Retained cpm were plotted vs. inhibitor concentration and fit to equation 1 using non-linear regression (ref. 1) to obtain the IC50 values: Retained cpm=A[sqrt{(IC50+It−Et)^2+4*IC50*Et}−(IC50+It−Et)]
(§2) Ref. Morrison, J. F. and S. R. Stone. 1985. Approaches to the study and analysis of the inhibition of enzymes by slow- and tight-binding inhibitors. Comments Mol. Cell. Biophys. 2: 347-368.
(§3) The sequence of the template RNA used was: 5′-[…] […] […] […] […] […] […] […] […] […] […] […] […] […] […] […] […]-3′ (SEQ ID NO:1).

[2] = molecular target: T2, HCV polymerase 1B (Δ21 NS5B, HCV Strain 1B BK) (Hepatitis C virus genotype 1b, UniProt P26663); test: biochemical
T2 construct: 20 to 50 nM Δ21 NS5B
T2 sequence (P26663 2420-2989, stated change not applied): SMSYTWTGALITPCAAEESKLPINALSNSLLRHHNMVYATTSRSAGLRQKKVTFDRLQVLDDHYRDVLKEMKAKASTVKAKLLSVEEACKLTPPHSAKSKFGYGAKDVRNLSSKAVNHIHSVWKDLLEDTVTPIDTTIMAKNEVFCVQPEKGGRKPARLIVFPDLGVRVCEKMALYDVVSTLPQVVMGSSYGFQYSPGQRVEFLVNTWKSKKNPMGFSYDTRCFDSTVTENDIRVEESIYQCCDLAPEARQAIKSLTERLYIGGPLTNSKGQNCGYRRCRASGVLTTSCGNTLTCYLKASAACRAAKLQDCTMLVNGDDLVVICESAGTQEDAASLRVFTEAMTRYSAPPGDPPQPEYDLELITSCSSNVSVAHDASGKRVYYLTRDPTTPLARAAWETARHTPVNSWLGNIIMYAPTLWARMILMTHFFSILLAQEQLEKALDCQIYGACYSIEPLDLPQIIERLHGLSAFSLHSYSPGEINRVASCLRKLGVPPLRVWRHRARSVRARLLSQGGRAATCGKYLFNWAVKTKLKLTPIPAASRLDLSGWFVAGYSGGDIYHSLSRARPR
Experimental: as §1, §2, §3

[3] = tested on: genotype 1a-H77 subgenomic replicon cell line; test: HCV Polymerase Replicon Assay, genotype 1a-H77 (luciferase reporter); format: cell-based; details: Hepatitis C virus, 72 h, read-out: EC50 1a
[4] = tested on: genotype 1b-Con1 subgenomic replicon cell line; test: HCV Polymerase Replicon Assay, genotype 1b-Con1 (luciferase reporter); format: cell-based; details: Hepatitis C virus, 72 h, read-out: EC50 1b

T1 sequence (P27958 2421-2990, stated change not applied): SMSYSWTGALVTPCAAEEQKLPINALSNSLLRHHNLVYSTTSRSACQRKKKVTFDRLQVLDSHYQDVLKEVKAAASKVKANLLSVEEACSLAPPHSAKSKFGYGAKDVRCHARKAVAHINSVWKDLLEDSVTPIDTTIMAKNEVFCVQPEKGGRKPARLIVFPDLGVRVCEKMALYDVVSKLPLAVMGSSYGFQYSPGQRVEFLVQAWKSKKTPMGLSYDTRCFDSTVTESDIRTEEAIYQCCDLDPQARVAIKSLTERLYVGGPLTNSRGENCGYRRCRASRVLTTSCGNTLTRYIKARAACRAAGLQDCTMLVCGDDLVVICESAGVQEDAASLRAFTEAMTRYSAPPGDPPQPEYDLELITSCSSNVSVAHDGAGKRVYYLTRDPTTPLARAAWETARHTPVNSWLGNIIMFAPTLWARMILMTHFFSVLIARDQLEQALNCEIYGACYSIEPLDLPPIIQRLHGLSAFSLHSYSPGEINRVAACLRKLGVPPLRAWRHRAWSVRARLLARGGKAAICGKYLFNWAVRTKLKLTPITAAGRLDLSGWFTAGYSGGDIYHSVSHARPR

**Q.** Which results are given for COc1c(/C=C/c2ccc(F)cc2)cc(N2CCC(=O)NC2=O)cc1C(C)(C)C [IA-L1-1.12, (E)-1-(3-tert-butyl-5-(4-fluorostyryl)-4-methoxyphenyl) dihydropyrimidine-2,4(1H,3H)-dione]?
**A.** IC50 [1]: 100 to 1000 nM; IC50 [2]: 100 to 1000 nM; EC50 [3]: 100 to 1000 nM; EC50 [4]: 100 to 1000 nM

**Q.** COc1c(/C=C/c2ccc([N+](=O)[O-])cc2)cc(N2CCC(=O)NC2=O)cc1C(C)(C)C [IA-L1-1.22, (E)-1-(3-tert-butyl-4-methoxy-5-(4-nitrostyryl)phenyl)dihydropyrimidine-2,4(1H,3H)-dione] was tested. Which IC50 [1] did it give?
**A.** The IC50 was 100 to 1000 nM.

**Q.** And the IC50 [2]?
**A.** Its IC50 is 100 to 1000 nM.

**Q.** What about the EC50 [3] of the same compound?
**A.** Its EC50 is over 1000 nM.

**Q.** What about the EC50 [4] of the same compound?
**A.** The EC50 was 100 to 1000 nM.

**Q.** With COc1c(/C=C/c2ccc(NS(C)(=O)=O)cc2)cc(N2CCC(=O)NC2=O)cc1C(C)(C)C [IA-L1-1.9, (E)-N-(4-(3-tert-butyl-5-(2,4-dioxotetrahydropyrimidin-1(2H)-yl)-2-methoxystyryl)phenyl)methanesulfonamide] as the compound, how does the IC50 [1] read?
**A.** The IC50 was under 10 nM.

**Q.** What about the IC50 [2] of the same compound?
**A.** Its IC50 is 10 to 100 nM.

**Q.** And the EC50 [3]?
**A.** The EC50 was 10 to 100 nM.

**Q.** What about the EC50 [4] of the same compound?
**A.** Its EC50 is under 10 nM.

**Q.** For COc1ccc(/C=C/c2cc(N3CCC(=O)NC3=O)cc(C(C)(C)C)c2OC)cc1 [IA-L1-1.14, (E)-1-(3-tert-butyl-4-methoxy-5-(4-methoxystyryl)phenyl)dihydropyrimidine-2,4(1H,3H)-dione], which IC50 [1] is on record?
**A.** The IC50 was over 1000 nM.

**Q.** What about the IC50 [2] of the same compound?
**A.** Its IC50 is over 1000 nM.

**Q.** What about the EC50 [3] of the same compound?
**A.** The EC50 was over 1000 nM.

**Q.** And the EC50 [4]?
**A.** The EC50 was over 1000 nM.

**Q.** Which IC50 [1] does the source give for COc1c(/C=C(\Cl)c2ccc([N+](=O)[O-])cc2)cc(N2CCC(=O)NC2=O)cc1C(C)(C)C [IA-L1-1.23, 1-{3-tert-butyl-5-[(Z)-2-chloro-2-(4-nitro-phenyl)-vinyl]-4-methoxy-phenyl}-dihydropyrimidine-2,4-dione] here?
**A.** The IC50 was 100 to 1000 nM.

**Q.** What about the IC50 [2] of the same compound?
**A.** The IC50 was 100 to 1000 nM.

**Q.** What about the EC50 [3] of the same compound?
**A.** Its EC50 is over 1000 nM.

**Q.** And the EC50 [4]?
**A.** Its EC50 is over 1000 nM.

**Q.** COc1c(/C=C/c2ccc(NS(C)(=O)=O)cc2)cc(-n2ccc(=O)[nH]c2=O)cc1-c1cccs1 [IB-L1-1.48, (E)-N-(4-(5-(2,4-dioxo-3,4-dihydropyrimidin-1(2H)-yl)-2-methoxy-3-(thiophen-2-yl)styryl)phenyl)methanesulfonamide] was tested. Which IC50 [1] did it give?
**A.** The IC50 was 10 to 100 nM.

**Q.** What about the IC50 [2] of the same compound?
**A.** Its IC50 is 10 to 100 nM.

**Q.** What about the EC50 ([3]; replicon 1a-H77, luciferase, three days) of the same compound?
**A.** The EC50 was 100 to 1000 nM.

**Q.** And the EC50 ([4]; replicon 1b-Con1, luciferase, three days)?
**A.** Its EC50 is under 10 nM.

**Q.** What does the source list for COc1c(/C=C/c2ccc(NS(C)(=O)=O)cc2COC(C)C)cc(-n2ccc(=O)[nH]c2=O)cc1C(C)(C)C [IB-L1-1.25, N-(4-{(E)-2-[3-tert-butyl-5-(2,4-dioxo-3,4-dihydro-2H-pyrimidin-1-yl)-2-methoxy-phenyl]-vinyl}-3-isopropoxymethyl-phenyl)-methanesulfonamide]?
**A.** IC50 [1]: 10 to 100 nM; IC50 [2]: 10 to 100 nM; EC50 [3]: 10 to 100 nM; EC50 [4]: < 10 nM

**Q.** Which results are given for COc1c(/C=C/c2ccc(NS(C)(=O)=O)cc2-c2ncco2)cc(-n2ccc(=O)[nH]c2=O)cc1C(C)(C)C [IB-L1-1.26, (E)-N-(4-(3-tert-butyl-5-(2,4-dioxo-3,4-dihydropyrimidin-1(2H)-yl)-2-methoxystyryl)-3-(oxazol-2-yl)phenyl)methanesulfonamide]?
**A.** IC50 [1]: 10 to 100 nM; IC50 [2]: 10 to 100 nM; EC50 [3]: 10 to 100 nM; EC50 [4]: < 10 nM

**Q.** Which IC50 [1] does the source give for COc1c(/C=C/c2ccc(NS(C)(=O)=O)c(F)c2)cc(N2CCC(=O)NC2=O)cc1C(C)(C)C [IA-L1-1.26, (E)-N-(4-(3-tert-butyl-5-(2,4-dioxotetrahydropyrimidin-1(2H)-yl)-2-methoxystyryl)-2-fluorophenyl)methanesulfonamide] here?
**A.** Its IC50 is 10 to 100 nM.

**Q.** What about the IC50 [2] of the same compound?
**A.** Its IC50 is 10 to 100 nM.

**Q.** And the EC50 [3]?
**A.** The EC50 was 10 to 100 nM.

**Q.** And the EC50 [4]?
**A.** Its EC50 is 10 to 100 nM.

**Q.** COc1c(/C=C/c2ccc(NS(C)(=O)=O)cc2C(=O)N(C)C)cc(-n2ccc(=O)[nH]c2=O)cc1C(C)(C)C [IB-L1-1.14, 2-{(E)-2-[3-tert-Butyl-5-(2,4-dioxo-3,4-dihydro-2H-pyrimidin-1-yl)-2-methoxy-phenyl]-vinyl}-5-methanesulfonylamino-N,N-dimethyl-benzamide] was tested. Which IC50 [1] did it give?
**A.** Its IC50 is under 10 nM.

**Q.** What about the IC50 [2] of the same compound?
**A.** The IC50 was 10 to 100 nM.

**Q.** What about the EC50 [3] of the same compound?
**A.** The EC50 was 10 to 100 nM.

**Q.** What about the EC50 [4] of the same compound?
**A.** Its EC50 is under 10 nM.
